The test system of this assay is CEM cells HIV-1 protection, formazan growth assay. Briefly: NCI AIDS Antiviral Assay. The note with it: for pIC50: measured here: growth of uninfected CEM cells. Put shortly:
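Protection of CEM cells against HIV-1 measured as cell growth via soluble formazan read-out, with five concentrations tested on both infected and uninfected cells; failure to protect may reflect toxicity.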

SMILES strings stand for the structures. pEC50, pIC50: −log10 of the molar value. Calls of active or inactive are those of the source.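 Rule for the calls: active = compounds giving half or more protection of infected cells from virus-caused growth loss, again on retest; inactive = the rest.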 Where a SMILES comes first, the peptide text is derived from it. The star is where a group is joined. Boc = CC(C)(C)OC(=O)* Some results are limits rather than exact numbers.

For orientation: pEC50 means −log10 of the EC50, conventionally taken in molar units. In general, pIC50 refers to −log10 of the IC50, conventionally taken in molar units.

As to `CC(Cc1ccccc1)Nc1ncnc2c1ncn2C1OC(CO)CC1O` (centres undefined), the outcome was inactive.

As to `Cc1nnc2c3nnc(C)n3c3ccccc3n12`, the outcome was inactive.

For `COc1ccc(CSc2nc3ccccc3nc2-c2cccs2)cc1`, the pEC50 was < 5.40 and the pIC50 was < 5.40.

Consider `COc1ccc(/C=C/C(=O)c2ccccc(=O)c2O)cc1`, for which the pEC50 is < 4.20 and the pIC50 was 5.47.

Turning to `CCOC(=O)N(C)C1(c2ccccc2)CCN(CCCC(=O)c2ccc(F)cc2)CC1`, the pEC50 was < 3.70 and the pIC50 is 4.08.

For the compound `O=C(CCl)Nc1ccc(C(=O)N/N=C/c2ccc(Cl)cc2)cc1`, the pEC50 was < 3.70 and the negative logarithm of the IC50 (pIC50) is 5.56.

`CCCc1cc(=O)oc2c3c(c4c(c12)OC(C)(C)C=C4)O[C@H](C)[C@@H](C)[C@H]3O`: the pEC50 was < 4.23 and the pIC50 is 4.75.

Take `CCCCCCCCCCCCCCCc1cc(O)ccc1N=O`: the pEC50 is < 3.70 and the pIC50 is 5.59.

As for `COc1cccc(/C=C2\SC(=S)N(/C=C(/C#N)C(N)=O)C2=O)c1O`, the pEC50 was 4.00 and the pIC50 is 3.95.

As for `CC(C)CNC(=O)Cn1c(-c2ccccc2)cc2ccccc21`, the pEC50 is < 3.70 and the pIC50 is 3.71.

Turning to `O=C(/C=C/NC(=O)OCc1ccccc1)OCc1ccccc1`, the pEC50 was < 3.70 and the pIC50 is < 3.70.

As for `O=C1CCCC/C1=C\c1ccc(Br)cc1`, the pEC50 is < 3.70 and the pIC50 was 4.97.

On to `CCC(C)[C@@H]1NC(=O)[C@@H]2CCCN2C(=O)C(CC(O)CCl)OC(=O)CCNC(=O)[C@H](C)N(C)C(=O)[C@H](C(C)C)N(C)C1=O` (some centres undefined) (HELM PEPTIDE1{[CCC(C)[C@H](N[*:1])C(=O)[*:2]].[meV].[meA].[bAla].[O=C(C(CC(O)CCl)O[*:1])[*:2]].P}$PEPTIDE1,PEPTIDE1,1:R1-6:R2$$$V2.0), for which the pEC50 is < 5.70 and the pIC50 was 6.96.

Take `CN(N)c1ncnc2c1cnn2C`: the pEC50 is < 3.68 and the negative logarithm of the IC50 (pIC50) is < 3.68.

Turning to `NC(=O)NCCSC1CCCCC1O` (centres undefined), the pEC50 was < 3.70 and the pIC50 was < 3.70.

`CCN(CC)CCOC(=O)CCN1CC2CCC(CC2)C1`: the pEC50 is < 3.70 and the negative-log IC50 (pIC50) was < 3.70.

Turning to `OC(CCN1CCCCCC1)(Cc1ccccc1)c1ccccc1` (centres undefined), the pEC50 is < 3.70 and the pIC50 is 4.09.

As for `COc1cc2c(cc1O)C1COc3cc4c(cc3C1O2)CCC(C)(C)O4` (centres undefined), the pEC50 was < 3.70 and the negative-log IC50 (pIC50) was 4.94.

With `N.N.NC(CS)C(=O)[O-].NC(CS)C(=O)[O-].[Pt+4]` (centres undefined), the pEC50 was < 2.48 and the negative-log IC50 (pIC50) was < 2.48.

In the case of `O=C(O)CSc1nnc(COc2ccc(Cl)cc2)n1-c1ccccc1`, the pEC50 was < 3.70 and the negative-log IC50 (pIC50) is 3.74.

As to `CC(CN(C)C)Sc1nnc(SC(C)CN(C)C)s1` (centres undefined), the outcome was inactive.

As to `CCOC(=O)CCC1(C(=O)OC)CCCC1=O` (centres undefined), the pEC50 was < 2.99 and the negative logarithm of the IC50 (pIC50) is < 2.99.

On to `O=C(N/C(=C\c1ccc(/C=C(\NC(=O)c2ccccc2)c2nc3cc(Cl)ccc3[nH]2)cc1)c1nc2cc(Cl)ccc2[nH]1)c1ccccc1`, for which the outcome was inactive.

For `c1ccc(NC2(c3nnnn3C3CCCCC3)CCNCC2)cc1`, the pEC50 was < 3.70 and the negative logarithm of the IC50 (pIC50) is 4.46.

On to `CN1CCCS/C1=C1/SC(=S)N(c2ccccc2)C1=O`, for which the pEC50 is < 4.51 and the negative-log IC50 (pIC50) is < 4.51.

With `CC1C=C(CCCCCCCCCCCC[C@@H](O)[C@@H]2CC[C@@H]([C@@H]3CC[C@@H](C(O)CCCCCCCCCCCCC4=C[C@H](C)OC4=O)O3)O2)C(=O)O1` (some centres undefined), the pEC50 is < 3.70 and the negative logarithm of the IC50 (pIC50) was 6.69.

For the compound `CC1(C)C2CCC1(C)C(Cl)([N+](=O)[O-])C2` (centres undefined), the outcome was inactive.

For the compound `COC(=O)C1=CC2C(=O)c3ccccc3C1(c1ccccc1)N2C1CCCCC1` (centres undefined), the pEC50 was < 3.70 and the negative logarithm of the IC50 (pIC50) was 4.67.

For the compound `COc1ccccc1CNCCCCCCNCCSSCCNCCCCCCNCc1ccccc1OC`, the pEC50 is < 3.70 and the negative logarithm of the IC50 (pIC50) is 4.24.

Turning to `NCCCCC1NC(=O)C(CO)NC(=O)C(Cc2cnc[nH]2)NC(=O)CNC(=O)C(Cc2c[nH]c3ccccc23)NC(=O)C(Cc2c[nH]c3ccccc23)NC(=O)C(Cc2ccccc2)NC1=O` (centres undefined) (cyclo(GHSKFWW); configuration not given here), the pEC50 is < 4.30 and the pIC50 is < 4.30.

Take `COc1cc(/C=C2/Cc3ccccc3C2=O)ccc1O`: the pEC50 is < 3.97 and the pIC50 was 4.26.

Take `N#Cc1c(NC(=S)NC(=O)c2ccccc2)nc2c(c1-c1ccccc1)CCC2`: the pEC50 was < 4.00 and the negative logarithm of the IC50 (pIC50) is 4.03.

In the case of `COc1cc(Cc2nnc(N)[nH]c2=O)cc(OC)c1OC`, the pEC50 was < 4.75 and the pIC50 is < 4.75.

As to `CC1=C2C3=C(C)C(=O)C(C)(C)CC[C@@]3(C)[C@]2(C)CCC(C)(C)C1=O`, the pEC50 is < 4.12 and the pIC50 is < 4.12.

With `O=C1c2cccc3cc([N+](=O)[O-])cc(c23)C(=O)N1CCc1ccccn1`, the pEC50 is < 3.70 and the negative logarithm of the IC50 (pIC50) is 5.36.

Consider `COC(=O)/C=C/C(=O)C1C(C(=O)OC)C2(C(=O)OC)CCC1(C(=O)OC)N2` (centres undefined), for which the result was inactive.

`CCOC(=O)/C=C1/Nc2cc(Cl)c(Cl)cc2NC1=O`: the pEC50 is < 5.04 and the pIC50 was < 5.04.

Regarding `CN1Cc2ccccc2S(=O)(=O)n2cccc2C1=O`, the pEC50 was < 3.70 and the pIC50 was < 3.70.

With `CCOC(=O)/C(=C\c1ccc(F)cc1)[Se]c1ccccc1`, the pEC50 is < 4.41 and the pIC50 was < 4.41.

On to `Cc1ccc(S(=O)(=O)n2cnc(CC(NC(=O)C3CCC(=O)N3C(=O)OCc3ccccc3)C(=O)N3CCCC3C(=O)NN)c2)cc1` (centres undefined), for which the pEC50 is < 3.70 and the pIC50 is < 3.70.

As for `O=[N+]([O-])c1ccc(-n2nnc(C3=NCCN3)c2-c2ccccc2)cc1`, the pEC50 was < 4.52 and the pIC50 is < 4.52.

`O=S(=O)(c1ccccc1)c1nccs1`: the negative logarithm of the EC50 (pEC50) was 3.96 and the pIC50 is 3.24.

Regarding `O=[N+]([O-])c1ccc2[nH]nc(OCc3ccccn3)c2c1`, the pEC50 was 3.94 and the pIC50 is < 3.70.

Regarding `Cn1cc(C(=O)C[n+]2ccccc2)c2ccccc21`, the pEC50 was < 3.65 and the negative logarithm of the IC50 (pIC50) was 4.09.

Consider `CC(C)C(CCl)NC(=O)c1cccc(C(=O)N[C@H](CCl)C(C)C)n1` (stereo in doubt), for which the pEC50 is < 4.16 and the pIC50 is < 4.16.

In the case of `O=C(CC(=O)C(=O)Nc1ccccc1)CC(c1ccccc1)c1c(O)c2ccccc2oc1=O` (centres undefined), the pEC50 is < 3.26 and the negative-log IC50 (pIC50) was 3.58.

`CCCCC/C=C\CCC/C=C\CCCCCCOP(=O)(O)OCCC=C(c1cc(Cl)c(O)c(C(=O)O)c1)c1cc(Cl)c(O)c(C(=O)O)c1`: the pEC50 was < 3.90 and the pIC50 was 4.08.

As for `CCOC(=O)Nc1sc2c(c1C#N)CCCC2`, the pEC50 was 4.38 and the negative logarithm of the IC50 (pIC50) is 3.98.

Consider `CC(C)(C)c1cc(-c2cc(C(C)(C)C)n(-c3ccccc3)n2)nn1-c1ccccc1`, for which the pEC50 was < 3.70 and the pIC50 was 4.05.

On to `CC(C)(C)OC(=O)NC(Cc1ccc(O)cc1)C(=O)NC(CCCCN)C(=O)O` (stereo not drawn) (Boc-Tyr-Lys-OH; configuration not given here), for which the pEC50 is < 3.70 and the pIC50 is 4.04.

Take `Cn1c(=O)[nH]c2[nH]c3ccccc3c2c1=O`: the pEC50 was < 3.70 and the negative logarithm of the IC50 (pIC50) is < 3.70.

Take `Nc1ccc(/C=C/c2ccnc3ccccc23)c(N)c1`: the pEC50 is 7.20 and the pIC50 was 4.10.

Consider `O=C1OCCC[C@H]2O[C@@H](COCc3ccccc3)C[C@@H]12`, for which the pEC50 is < 3.70 and the pIC50 is < 3.70.

For the compound `COc1cccc(/S(C)=N/S(=O)(=O)c2ccc(C)cc2)c1` (centres undefined), the pEC50 was < 3.11 and the negative logarithm of the IC50 (pIC50) was 3.67.

Consider `c1cc2n(n1)CCN2`, for which the pEC50 is < 2.64 and the pIC50 is 3.77.

Turning to `CC(C)(C)C1CNP(=O)(c2ccccc2)OC1` (centres undefined), the pEC50 is < 4.15 and the pIC50 is < 4.15.

Turning to `C=C1C(=O)C23C(O)C1CC[C@H]2C12CCCC(C)(COC(C)=O)[C@H]1[C@H](O)[C@]3(O)OC2` (some centres undefined), the pEC50 is < 3.49 and the pIC50 was 6.40.

On to `CC[C@@H]1C[C@@H]2CN3CCc4c([nH]c5ccc(OC)cc45)C(COC(=O)c4ccc(OC)c(OC)c4)(C2)C13`, for which the result was inactive.

In the case of `COC(=O)C12CCC(C(=O)OC)(CC1)n1c(=O)n(-c3ccccc3)c(=O)n12`, the pEC50 was < 3.70 and the pIC50 is < 3.70.

For the compound `Cn1c(=O)oc2ccc(S(=O)(=O)Nc3ccc(Cl)cc3[N+](=O)[O-])cc21`, the pEC50 is < 3.70 and the pIC50 is 4.55.

Turning to `CC#CC(O)(C(=O)OCCCN(C)C)C1CCCCC1` (centres undefined), the pEC50 is < 3.70 and the pIC50 was < 3.70.

As to `COc1ccc(-c2nnc(CCCCCCCCc3nnc(-c4ccc(OC)cc4)o3)o2)cc1`, the pEC50 is < 3.70 and the negative logarithm of the IC50 (pIC50) is < 3.70.

For the compound `CCOC(=O)C(=CC[C@@H]1N[C@H](C(N)=O)Cc2c1[nH]c1ccccc21)C(=O)OCC`, the pEC50 is < 4.47 and the negative logarithm of the IC50 (pIC50) was < 4.47.

As to `CCOC(=O)/C(=C\c1cccc(OC)c1)P(=O)(OCC)OCC`, the pEC50 was < 3.28 and the pIC50 was 4.94.

For `O=S1(=O)OC(c2ccc(O)cc2)(c2ccc(O)cc2)c2ccccc21`, the outcome was inactive.

As to `O=S(=O)(O)SCCCNCCCCCCCCNCCCSS(=O)(=O)O`, the pEC50 was < 3.70 and the negative-log IC50 (pIC50) was 5.00.

As to `CCOC(=O)/C(C1=NCCN1C)=C(\O)c1ccccc1`, the pEC50 is < 3.04 and the negative logarithm of the IC50 (pIC50) is < 3.04.

`CC1=C(N2CCOCC2)C(N2CCOCC2)=C(C)C(=O)C1=O`: the pEC50 is < 3.70 and the pIC50 was 4.84.

As for `COC(=O)C(=O)C(C(=O)C(=O)Nc1cc(C)ccc1C)c1nc2ccc(C(=O)c3ccccc3)cc2[nH]c1=O` (centres undefined), the outcome was inactive.
